Laboratory results reported in patent publication US9924714B2, “Impregnatable matrix of plant, animal or synthetic origin or mixtures of same, containing a uniformly distributed antimicrobial compound, method for impregnating said matrix with a compound, and use thereof in the production of antimicrobial elements” (COMPAÑIA MINERA SAN GERONIMO, priority 2013, dated 2018).

Columns and labels:
Assay in all cases: Disc growth inhibition halo test (Example 2)
Assay type in all cases: cell-based
[1] = tested on: Pseudomonas aeruginosa PAOI
[2] = tested on: Acinetobacter baumanii UDP456
[3] = tested on: Staphylococcus epidermidis ATCC25923
[4] = tested on: Streptococcus pneumoniae ATCC14325
[5] = tested on: Staphylococcus aureus ATCC25923
[6] = tested on: Streptococcus pyogenes ATCC2367
[7] = tested on: Enterococcus faecalis ATCC29212
[8] = tested on: Citrobacter freundii ISP1949/99
[9] = tested on: Klebsiella pneumoniae ATCC4352
[10] = tested on: Enterococcus faecium ISP133/04
[11] = tested on: Enterobacter aerogenes ATCC13048
[12] = tested on: Escherichia coli ATCC25922

O=P([O-])([O-])[O-].[Cu+2].[Cu+2].[OH-] [Copper hydroxyphosphate compound (II), copper hydroxyphosphate (II)]
Growth inhibition zone ([1]; 200 μg on 5 mm disc): 5.0 mm | Growth inhibition zone ([1]; 400 μg on 5 mm disc): 5.0 mm | Growth inhibition zone ([1]; 600 μg on 5 mm disc): 5.0 mm | Growth inhibition zone ([1]; 800 μg on 5 mm disc): 5.0 mm | Growth inhibition zone ([2]; 200 μg on 5 mm disc): 5.0 mm | Growth inhibition zone ([2]; 400 μg on 5 mm disc): 8.6 ± 0.6 mm | Growth inhibition zone ([2]; 600 μg on 5 mm disc): 7.3 ± 2 mm | Growth inhibition zone ([2]; 800 μg on 5 mm disc): 7.6 ± 2.3 mm | Growth inhibition zone ([3]; 200 μg on 5 mm disc): 5.0 mm | Growth inhibition zone ([3]; 400 μg on 5 mm disc): 5.0 mm | Growth inhibition zone ([3]; 600 μg on 5 mm disc): 5.6 ± 0.5 mm | Growth inhibition zone ([3]; 800 μg on 5 mm disc): 6.3 ± 1.1 mm | Growth inhibition zone ([4]; 200 μg on 5 mm disc): 5.0 mm | Growth inhibition zone ([4]; 400 μg on 5 mm disc): 5.0 mm | Growth inhibition zone ([4]; 600 μg on 5 mm disc): 5.0 mm | Growth inhibition zone ([4]; 800 μg on 5 mm disc): 5.0 mm | Growth inhibition zone ([5]; 200 μg on 5 mm disc): 5.0 mm | Growth inhibition zone ([5]; 400 μg on 5 mm disc): 5.0 mm | Growth inhibition zone ([5]; 600 μg on 5 mm disc): 5.0 mm | Growth inhibition zone ([5]; 800 μg on 5 mm disc): 5.0 mm | Growth inhibition zone ([6]; 200 μg on 5 mm disc): 5.0 mm | Growth inhibition zone ([6]; 400 μg on 5 mm disc): 5.0 mm | Growth inhibition zone ([6]; 600 μg on 5 mm disc): 5.0 mm | Growth inhibition zone ([6]; 800 μg on 5 mm disc): 8.6 ± 0.6 mm | Growth inhibition zone ([7]; 200 μg on 5 mm disc): 5.0 mm | Growth inhibition zone ([7]; 400 μg on 5 mm disc): 5.0 mm | Growth inhibition zone ([7]; 600 μg on 5 mm disc): 5.0 mm | Growth inhibition zone ([7]; 800 μg on 5 mm disc): 5.0 mm | Growth inhibition zone ([8]; 200 μg on 5 mm disc): 5.0 mm | Growth inhibition zone ([8]; 400 μg on 5 mm disc): 5.0 mm | Growth inhibition zone ([8]; 600 μg on 5 mm disc): 5.0 mm | Growth inhibition zone ([8]; 800 μg on 5 mm disc): 5.0 mm | Growth inhibition zone ([9]; 200 μg on 5 mm disc): 5.0 mm | Growth inhibition zone ([9]; 400 μg on 5 mm disc): 5.0 mm | Growth inhibition zone ([9]; 600 μg on 5 mm disc): 5.0 mm | Growth inhibition zone ([9]; 800 μg on 5 mm disc): 5.0 mm | Growth inhibition zone ([10]; 200 μg on 5 mm disc): 5.0 mm | Growth inhibition zone ([10]; 400 μg on 5 mm disc): 5.0 mm | Growth inhibition zone ([10]; 600 μg on 5 mm disc): 5.0 mm | Growth inhibition zone ([10]; 800 μg on 5 mm disc): 5.0 mm | Growth inhibition zone ([11]; 200 μg on 5 mm disc): 5.0 mm | Growth inhibition zone ([11]; 400 μg on 5 mm disc): 5.0 mm | Growth inhibition zone ([11]; 600 μg on 5 mm disc): 5.0 mm | Growth inhibition zone ([11]; 800 μg on 5 mm disc): 5.0 mm | Growth inhibition zone ([12]; 200 μg on 5 mm disc): 5.0 mm | Growth inhibition zone ([12]; 400 μg on 5 mm disc): 5.0 mm | Growth inhibition zone ([12]; 600 μg on 5 mm disc): 5.0 mm | Growth inhibition zone ([12]; 800 μg on 5 mm disc): 5.0 mm
